Data reported in patent US20040102468A1 (Gruenenthal GmbH, priority 2001, published 2004).

Assays:
rat = rat model of rhythmic bladder contractions; cited from earlier work
[1] = tested on: female Sprague-Dawley rats with oxyhaemoglobin-induced bladder overactivity; assay: Cystometry on conscious damaged rats (oxyhaemoglobin-induced bladder overactivity, urgency incontinence model); type: in vivo, rat; conditions: OxyHb 2.5 × 10^−4 M alone

| Compound | effect on bladder function (rat) | BC bladder capacity, after (a) ([1]; n=5) | BC bladder capacity, change (dif.) compared with the pre-value ([1]; n=5) | ICI intercontraction interval, after (a) ([1]; n=5) | ICI intercontraction interval, change (dif.) compared with the pre-value ([1]; n=5) | MP micturition pressure, after (a) ([1]; n=5) | MP micturition pressure, change (dif.) compared with the pre-value ([1]; n=5) | TP threshold pressure, after (a) ([1]; n=5) | TP threshold pressure, change (dif.) compared with the pre-value ([1]; n=5) | BC bladder capacity, before (b) ([1]; n=5, pre-value) | ICI intercontraction interval, before (b) ([1]; n=5, pre-value) | MP micturition pressure, before (b) ([1]; n=5, pre-value) | TP threshold pressure, before (b) ([1]; n=5, pre-value) |
| --- | --- | --- | --- | --- | --- | --- | --- | --- | --- | --- | --- | --- | --- |
| COc1cccc(C2(O)CCCCC2CN(C)C)c1 (stereo not shown) [tramadol] | positive effect on bladder function | – | – | – | – | – | – | – | – | – | – | – | – |
| oxyhaemoglobin [OxyHb] | – | a: 0.65 ± 0.06 ml | dif.: −29.3% | a: 3.33 ± 0.18 min | dif.: −32.9% | a: 97 ± 5 cm H2O | dif.: +64.4% | a: 9.84 ± 1.56 cm H2O | dif.: +12.8% | b: 0.92 ± 0.10 ml | b: 4.96 ± 0.33 min | b: 59 ± 8 cm H2O | b: 8.72 ± 1.31 cm H2O |
